Measurements published in article PMC8624998, “Synthesis and Antiproliferative Evaluation of 3-Chloroazetidin-2-ones with Antimitotic Activity: Heterocyclic Bridged Analogues of Combretastatin A-4” (Pharmaceuticals, 2021).
Read-outs that look alike come from different tables or passages of the source.

How the values were obtained:
KM12 = test: NCI-60 5 dose screen, Colon Cancer; type: cell-based; conditions: Homo sapiens
NCI-H226 = test: NCI-60 5 dose screen, NSC Lung Cancer; type: cell-based; conditions: Homo sapiens
BT-549 = test: NCI-60 5 dose screen, Breast Cancer; type: cell-based; conditions: Homo sapiens
U266 cells = test: Cell viability assay, antiproliferative activity; type: cell-based; conditions: Homo sapiens, U-266; U266, 72 h
Excerpt: Compounds 10n and 10e were next evaluated for antiproliferation in multiple myeloma (U266) cells. Multiple myeloma, also known as plasma cell myeloma, is a malignant haematological disease characterised by the proliferation of clonal plasma cells predominantly in the bone marrow. U266 cells are considered to be the least sensitive multiple myeloma cells to nucleoside drug cladribine compared to RPMI8226 and MM1.S cells.
The human breast carcinoma cell line MCF-7 was purchased from the European Collection of Animal Cell Cultures (ECACC). Triple negative breast cancer Hs578T cells and its invasive variant Hs578Ts(i)8 were a kind gift from Dr. Susan McDonnell, School of Chemical and Bioprocess Engineering, University College Dublin. U266 cells were a gift from Dr. Tony McElligott, School of Medicine, St James’s Hospital, Trinity College Dublin. HT-29 cells were purchased from the European Collection of Cell Cultures (originating from a human adenocarcinoma of the colon). The human breast carcinoma cell line MDA-MB-231 and the HL-60 cells derived from a patient with acute myeloid leukaemia were both obtained from ECACC (Salisbury, UK). The SW-480 cells were a kind gift from Dr. Brian Flood, School of Biochemistry and Immunology, Trinity College Dublin. HEK-293T (normal epithelial embryonic kidney cells) were cultured in Dulbecco’s Modified Eagle’s Medium (DMEM) with GlutaMAXTM-I in the absence of non-essential amino acids. […] Cell numbers were monitored using a haemocytometer. […]
A stock solution of each β-lactam compound was prepared (10 mM) and serial […] dilutions were made with ethanol for compounds to have working dilutions of 1 nM, 10 nM, 100 nM, 500 nM, 1µM, 5 µM, 10 µM and 50 µM. […] Solubilisation was commenced by the addition of DMSO ([…]) and the cells were maintained at 20 °C in the dark for 20 min before reading the absorbance to ensure complete colour diffusion. […]

HCT-116 = test: NCI-60 5 dose screen, Colon Cancer; type: cell-based; conditions: Homo sapiens
OVCAR-3 = test: NCI-60 5 dose screen, Ovarian Cancer; type: cell-based; conditions: Homo sapiens
SF-268 = test: NCI-60 5 dose screen, CNS Cancer; type: cell-based; conditions: Homo sapiens
HS 578T = test: NCI-60 5 dose screen, Breast Cancer; type: cell-based; conditions: Homo sapiens
MDA-MB-435 = test: NCI-60 5 dose screen, Melanoma; type: cell-based; conditions: Homo sapiens
HT29 = test: NCI-60 5 dose screen, Colon Cancer; type: cell-based; conditions: Homo sapiens, HT-29
M14 = test: NCI-60 5 dose screen, Melanoma; type: cell-based; conditions: Homo sapiens
[1] = tested on: purified bovine brain tubulin; test: In vitro tubulin polymerisation assay; conditions: for Fold-Reduction of Vmax of tubulin polymerisation: 10 µM; for Vmax at 10 µM: 10 µM compound, tubulin 3 mg/mL, vehicle 0.0069
HCT-15 = test: NCI-60 5 dose screen, Colon Cancer; type: cell-based; conditions: Homo sapiens
NCI-H460 = test: NCI-60 5 dose screen, NSC Lung Cancer; type: cell-based; conditions: Homo sapiens

Question: What does the source list for `COc1ccc([C@H]2[C@H](Cl)C(=O)N2c2cc(OC)c(OC)c(OC)c2)cc1` (relative stereo) [Compound 10e trans, Trans-3-chloro-1-(3,4,5-trimethoxyphenyl)-4-(4-methoxyphenyl) azetidin-2-one]?
Answer: GI50 (KM12; read-out: GI50): 39.3 nM; GI50 (NCI-H226; read-out: GI50): 55.7 nM; GI50 (BT-549; read-out: GI50): 174 nM; IC50 (U266 cells): 77 ± 20 nM; GI50 (HCT-116; read-out: GI50): 39.7 nM; GI50 (OVCAR-3; read-out: GI50): 24.1 nM; GI50 (SF-268; read-out: GI50): 158 nM; GI50 (HS 578T; HS 578T, read-out: GI50): 55.3 nM; GI50 (MDA-MB-435; read-out: GI50): 22.6 nM; GI50 (HT29; HT29, read-out: GI50): 29.2 nM; GI50 (M14; read-out: GI50): 39.6 nM; Fold-Reduction of Vmax of tubulin polymerisation [1]: 1.8 fold; Vmax at 10 µM [1]: 0.0039 mOD/min; GI50 (HCT-15; read-out: GI50): 50.4 nM; GI50 (NCI-H460; read-out: GI50): 306 nM

Question: For `COc1ccc(/C=C\c2cc(OC)c(OC)c(OC)c2)cc1O` [CA-4, Combretastatin A-4], which IC50 (U266 cells) is on record?
Answer: 35 ± 10 nM

Question: What about the “Vmax at 10 µM” value [1] of the same compound?
Answer: 0.0022 mOD/min

Question: How did the IC50 (U266 cells) turn out when `COc1ccc(C2C(Cl)C(=O)N2c2cc(OC)c(OC)c(OC)c2)cc1O` (centres unmarked) [Compound 10n, 3-Chloro-4-(3-hydroxy-4-methoxy-phenyl)-1-(3,4,5-trimethoxyphenyl)azetidin-2-one] was run?
Answer: 31 ± 10 nM

Question: For `CCSc1ccc(C2C(Br)C(=O)N2c2cc(OC)c(OC)c(OC)c2)cc1` (centres unmarked) [Compound 16d, 3-Bromo-4-(4-(ethylthio)phenyl)-1-(3,4,5-trimethoxyphenyl)azetidin-2-one], which GI50 (KM12; read-out: GI50) is on record?
Answer: 202 nM

Question: And the GI50 (NCI-H226; read-out: GI50)?
Answer: 3110 nM

Question: And the GI50 (BT-549; read-out: GI50)?
Answer: 525 nM

Question: And the GI50 (HCT-116; read-out: GI50)?
Answer: 222 nM

Question: What about the GI50 (OVCAR-3; read-out: GI50) of the same compound?
Answer: 109 nM

Question: What about the GI50 (SF-268; read-out: GI50) of the same compound?
Answer: 1180 nM

Question: What about the GI50 (HS 578T; HS 578T, read-out: GI50) of the same compound?
Answer: 229 nM

Question: And the GI50 (MDA-MB-435; read-out: GI50)?
Answer: 37.7 nM

Question: And the GI50 (HT29; HT29, read-out: GI50)?
Answer: 351 nM

Question: And the GI50 (M14; read-out: GI50)?
Answer: 128 nM

Question: What about the GI50 (HCT-15; read-out: GI50) of the same compound?
Answer: 210 nM

Question: What about the GI50 (NCI-H460; read-out: GI50) of the same compound?
Answer: 539 nM

Question: `COc1ccc(C2N(c3cc(OC)c(OC)c(OC)c3)C(=O)C2(Cl)Cl)cc1O` (centres unmarked) [Compound 11n, 3,3-Dichloro-4-(3-hydroxy-4-methoxyphenyl)-1-(3,4,5-trimethoxyphenyl)azetidin-2-one] was tested. Which GI50 (KM12) did it give?
Answer: 31.8 nM

Question: What about the GI50 (NCI-H226) of the same compound?
Answer: 36.8 nM

Question: What about the GI50 (BT-549) of the same compound?
Answer: 39.7 nM

Question: What about the GI50 (HCT-116) of the same compound?
Answer: 32.8 nM

Question: What about the GI50 (OVCAR-3) of the same compound?
Answer: 24.4 nM

Question: What about the GI50 (SF-268) of the same compound?
Answer: 51.4 nM

Question: And the GI50 (HS 578T; Hs-578T)?
Answer: 42.8 nM

Question: What about the GI50 (MDA-MB-435) of the same compound?
Answer: 20.2 nM

Question: What about the GI50 (HT29) of the same compound?
Answer: 2780 nM

Question: And the GI50 (M14)?
Answer: 31.3 nM

Question: What about the “Fold-Reduction of Vmax of tubulin polymerisation” value [1] of the same compound?
Answer: 1.7 fold

Question: And the “Vmax at 10 µM” value [1]?
Answer: 0.0041 mOD/min

Question: What about the GI50 (HCT-15) of the same compound?
Answer: 38.3 nM

Question: And the GI50 (NCI-H460)?
Answer: 35.4 nM
